Measured values taken from patent US6197775A, “Phosphonate nucleotide derivatives” (Mitsubishi Chemical Corporation, priority 1995, dated 2001).
Where two headings read alike, the source gives them in different places.

How the values were obtained:
Hepatitis B virus (HBV) = test: Activity for inhibiting proliferation of Hepatitis B virus (HBV): inhibition of HBV-DNA synthesis in HB611 cells; format: cell-based; details: read-out: Inhibitory ratio against HBV-DNA synthesis (%)
Procedure: Activity for inhibiting proliferation of Hepatitis B virus (HBV)
Inhibitory activity of the compounds of the present invention against proliferation of HBV was measured by a known method (K. Ueda, et al., VIROLOGY, 169, 213-216 (1989)).
(§1) 2×10^4 HB611 cells (recombinant human liver cancer cells producing HBV) were cultured in Dulbecco's ME medium containing 10% fetal bovine serum, streptomycin (100 μg/ml), penicillin (100 IU/ml), and Geneteicin (trade name of an antibiotic sold by Life Technologies, 0.2 mg/ml) at 37° C. The medium was changed with fresh medium on the second day and fifth day of the culture, and then changed with a medium containing a test compound at a final concentration of 10 μM or 1 μM on the 8th, 11th and 14th days of the culture. DNA of the cells were collected on the 17th day of the culture. Amounts of HBV-DNA in the cells were measured by Southern blotting method and inhibitory rates against HBV-DNA synthesis were determined. Concentrations of compounds required for 50% death of HB611 cells were determined by cell titer 96 (trademark of Promega Corp.). As references, the same test was carried out by using PMEA and its bis(pivaloyloxymethyl ester). Compound Nos. in Table 2 correspond to those in Table 1.

[1] = test system: polychromatic erythrocytes (bone marrow); test: Micronucleus test using mice; format: in vivo
Procedure: Micronucleus test using mice
A test compound was administered to mice at a dose of 1,000 or 2,000 mg/kg, and bone marrow smear preparations were prepared at 24, 30, 48, and 72 hours after the administration. For a negative control group (0.5% aqueous solution of tragacanth gum) and a positive control group (2 mg/kg of mitomycin C (MMC) was administered as a single intraperitoneal administration), bone marrow smears were prepared at 24 hours after the administration. The samples were stained by the Giemsa's staining method in an ordinary manner, and then 2,000 polychromatic erythrocytes per animal were examined to determine the number of cells having micronuclei and frequency of appearance of micronuclei (%). As statistic analysis, significant difference test was carried out for polychromatic erythrocytes containing micronuclei between the negative control group and the group administered with a test compound according to the stochastic method of Kasternbaum and Bowman.
For comparison, the same test was carried out by using an unsubstituted 6-amino derivative, i.e., 9-[2-[bis(2,2,2-trifluoroethyl)phosphonylmethoxy]ethyl]-2,6-diaminopurine (abbreviated as "DAP"), and PMEA bis(pivaloyloxymethyl ester). Compound Nos. in Table 4 correspond to those in Table 1.

HBV = test: Inhibitory effect on HBV proliferation in a serum of a rat orally administered with a test compound (HB611 cells cultured with 5% serum); format: cell-based, Hepatitis B virus; details: 5% serum in medium
Procedure: Inhibitory effect on HBV proliferation in a serum of a rat orally administered with a test compound
A group consisting of three rats was orally administered with a test compound at a dose of 1 g/kg or 0.3 g/kg by a single oral administration. Blood of the rats was collected one hour after the administration and serum samples were prepared.
2×10^4 HB611 cells were cultured in Dulbecco's ME medium containing 10% fetal bovine serum, streptomycin (100 μg/ml), penicillin (100 IU/ml) and Geneteicin (0.2 mg/ml) at 37° C. The medium was changed with fresh medium on the second day and fifth day of the culture, and then changed with a medium containing 5% of the above serum (the serum of the rat orally administered with a test compound) on the 8th, 11th and 14th days of the culture. DNA of the cells were collected on the 17th day of the culture. Amounts of HBV-DNA in the cells were measured by Southern blotting method, and inhibitory ratios against […] synthesis in the cells were determined. As a reference, the same test was carried out by using PMEA. Compound Nos. in Table 3 correspond to those in Table 1.

[2] = Cytotoxicity for HB611 cells (cell titer 96); format: cell-based, human; details: human; 50% death of HB611 cells; read-out: 50% Cytotoxic concentration for HB611 cells
Procedure: as §1

[3] = test system: herpes simplex viruses type-1 (HSV-1); details: literature (Yokota et al.; Votruba et al.); cited from earlier work
[4] = test system: herpes simplex viruses type-2 (HSV-2); details: literature (Yokota et al.; Votruba et al.); cited from earlier work
[5] = test system: human immunodeficiency virus (HIV); details: literature (Yokota et al.; Votruba et al.); cited from earlier work
[6] = test system: human hepatitis B virus (HBV); details: literature (Yokota et al.; Votruba et al.); cited from earlier work
HB611 cells = test: Cytotoxicity for HB611 cells (cell titer 96); format: cell-based, human; details: 50% death of HB611 cells; read-out: 50% Cytotoxic concentration for HB611 cells
Procedure: as §1

[7] = 408 h, 1 μM, HB611 cells, DNA collected on 17th day
[8] = 408 h, 10 μM, HB611 cells, DNA collected on 17th day
[9] = serum of rats 1 h after single oral dose of 0.3 g/kg

Row | SMILES | inhibition at 1 µM (Hepatitis B virus (HBV); [7]) [%] | inhibition at 10 µM (Hepatitis B virus (HBV); [8]) [%] | Test result (micronucleus test) ([1]; mouse, in vivo) | CC50 [2] [µM] | also measured
1 | CN(C)c1nc(N)nc2c1ncn2CCOCP(=O)(OCC(F)(F)F)OCC(F)(F)F [Compound 11, 2-amino-9-[2-[bis(2,2,2-trifluoroethyl)phosphonylmethoxy]ethyl]-6-(dimethylamino)purine] | 92 | 100 | Negative | > 1000 | Inhibitory ratio against HBV-DNA synthesis (%) (HBV; [9]): 95.6%
2 | CCCN(C)c1nc(N)nc2c1ncn2CCOCP(=O)(OCC(F)(F)F)OCC(F)(F)F [Compound 13, 2-amino-9-[2-[bis(2,2,2-trifluoroethyl)phosphonylmethoxy]-ethyl]-6-(methyl-1-propylamino)purine] |  | 100 | Negative | > 1000 | Inhibitory ratio against HBV-DNA synthesis (%) (HBV; [9]): 100%
3 | CCCCN(C)c1nc(N)nc2c1ncn2CCOCP(=O)(OCC(F)(F)F)OCC(F)(F)F [Compound 15] | 86.7 |  |  | > 1000 | 
4 | CCN(CC)c1nc(N)nc2c1ncn2CCOCP(=O)(OCC(F)(F)F)OCC(F)(F)F [Compound 16, 2-amino-9-[2-[bis(2,2,2-trifluoroethyl)phosphonylmethoxy]-ethyl]-6-(diethylamino)purine] |  | 100 |  | > 1000 | 
5 | CN(C)c1nc(N)nc2c1nnn2CCOCP(=O)(OCC(F)(F)F)OCC(F)(F)F [Compound 21, 2-amino-8-aza-9-[2-[bis(2,2,2-trifluoroethyl)phosphonyl-methoxy]ethyl]-6-(dimethylamino)purine] |  | 100 |  | > 1000 | 
6 | CN(c1ccccc1)c1nc(N)nc2c1ncn2CCOCP(=O)(OCC(F)(F)F)OCC(F)(F)F [Compound 621, 2-amino-9-[2-[bis(2,2,2-trifluoroethyl)phosphonyl-methoxy]ethyl]-6-(methylphenylamino)purine] | 68 |  |  | > 1000 | 
7 | Nc1nc(N)c2ncn(CCOCP(=O)(OCC(F)(F)F)OCC(F)(F)F)c2n1 [DAP, 9-[2-[bis(2,2,2-trifluoroethyl)phosphonylmethoxy]ethyl]-2,6-diaminopurine, reference compound] |  |  | Positive |  | 
8 | Nc1nc(N)c2ncn(CCOCP(=O)(O)O)c2n1 [PMDAP, 9-(2-phosphonylmethoxy)ethyl-2,6-diaminopurine] |  |  |  |  | effectiveness against HSV-1 [3]: effective; effectiveness against HSV-2 [4]: effective; effectiveness against HIV [5]: effective; effectiveness against HBV [6]: effective
9 | CC(C)(C)C(=O)OCOP(=O)(COCCn1cnc2c(N)ncnc21)OCOC(=O)C(C)(C)C [PMEA ester, PMEA bis(pivaloyloxymethyl ester), reference compound] |  |  |  |  | inhibition at 1 µM (Hepatitis B virus (HBV); HB611, 408 h): 63.7%; inhibition at 10 µM (Hepatitis B virus (HBV); HB611, 408 h): 90%; Test result (micronucleus test) ([1]; mice, 1,000 or 2,000 mg/kg, bone marrow at 24, 30, 48, and 72 hours): Positive; CC50 (HB611 cells): 18 µM
10 | Nc1ncnc2c1ncn2CCOCP(=O)(O)O [PMEA, 9-(2-phosphonylmethoxy)ethyladenine] |  |  |  |  | effectiveness against HSV-1 [3]: effective; effectiveness against HSV-2 [4]: effective; effectiveness against HIV [5]: effective; inhibition at 10 µM (Hepatitis B virus (HBV); HB611, 408 h): 83%; effectiveness against HBV [6]: effective; Inhibitory ratio against HBV-DNA synthesis (%) (HBV; serum of rats 1 h after single oral dose of 1 g/kg): 35.5%
